Assay results taken from ChEMBL document CHEMBL1141914.

These molecules were tested against T1, Prostaglandin G/H synthase 1 (Ovis aries) (UniProt P05979) (assay: Percent inhibition against Prostaglandin G/H synthase 1 from ram seminal vesicles at 100 uM).
T1 sequence (whole entry): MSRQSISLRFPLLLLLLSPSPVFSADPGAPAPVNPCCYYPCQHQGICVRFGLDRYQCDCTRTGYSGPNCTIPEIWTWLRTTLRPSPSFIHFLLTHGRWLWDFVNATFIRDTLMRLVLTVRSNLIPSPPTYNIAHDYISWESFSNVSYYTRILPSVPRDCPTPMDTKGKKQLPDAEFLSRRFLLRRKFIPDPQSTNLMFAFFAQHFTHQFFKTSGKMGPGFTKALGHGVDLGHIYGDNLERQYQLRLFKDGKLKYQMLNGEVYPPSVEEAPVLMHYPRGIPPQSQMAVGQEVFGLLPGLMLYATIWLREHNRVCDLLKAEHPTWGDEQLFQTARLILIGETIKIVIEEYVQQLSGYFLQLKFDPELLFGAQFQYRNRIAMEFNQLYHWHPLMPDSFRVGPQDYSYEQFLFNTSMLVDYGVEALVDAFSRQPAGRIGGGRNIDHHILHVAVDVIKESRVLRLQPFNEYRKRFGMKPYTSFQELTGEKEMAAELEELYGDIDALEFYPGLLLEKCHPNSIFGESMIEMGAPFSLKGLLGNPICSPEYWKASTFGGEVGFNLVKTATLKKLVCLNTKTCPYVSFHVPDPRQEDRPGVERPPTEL

Point of comparison: `COc1cc(/C=C/c2cc(/C=C/c3ccc(O)cc3)on2)ccc1O`, inhibition 47.4%. Against it:
- COc1cc(/C=C/C(=O)CC(=O)/C=C/c2ccc(O)c(OC)c2)ccc1O — higher, 80.5%
- Oc1ccc(/C=C/c2cc(/C=C/c3ccc(O)cc3)[nH]n2)cc1 — lower, 44.4%
- COc1cc(/C=C/c2cc(/C=C/c3ccc(O)c(OC)c3)[nH]n2)ccc1O — higher, 87%
- O=C(/C=C/c1ccc(O)cc1)CC(=O)/C=C/c1ccc(O)cc1 — lower, 41.7%
- COc1cc(/C=C/c2cc(/C=C/c3ccc(O)cc3)[nH]n2)ccc1O — higher, 73.9%
- COc1cc(/C=C/C(O)=C/C(=O)/C=C/c2ccc(O)cc2)ccc1O — higher, 67.8%
- COc1cc(/C=C/c2cc(/C=C/c3ccc(O)c(OC)c3)on2)ccc1O — higher, 80.8%
